Test results from paper PMC4049574 (PLoS ONE, 2014).
Structures can show the parent of a compound that is named as a salt. One block for each molecule: values may come before it.

Legend:
[1] = target: T1, human mitochondrial NAD(P)+-dependent malic enzyme (m-NAD(P)-ME, ME2) (Homo sapiens, UniProt P23368); assay: enzyme activation assay ([…] nm), purified enzyme; allosteric-site mutant controls; conditions: read-out: ^3 ^, ^4m-NAD(P)-ME WT
[2] = target: T1, human mitochondrial NAD(P)+-dependent malic enzyme (m-NAD(P)-ME, ME2); assay: spectrophotometric NADH assay at […] nm; fumarate competition/rescue; allosteric-site mutant controls; format: biochemical

T1 sequence (P23368 19-584): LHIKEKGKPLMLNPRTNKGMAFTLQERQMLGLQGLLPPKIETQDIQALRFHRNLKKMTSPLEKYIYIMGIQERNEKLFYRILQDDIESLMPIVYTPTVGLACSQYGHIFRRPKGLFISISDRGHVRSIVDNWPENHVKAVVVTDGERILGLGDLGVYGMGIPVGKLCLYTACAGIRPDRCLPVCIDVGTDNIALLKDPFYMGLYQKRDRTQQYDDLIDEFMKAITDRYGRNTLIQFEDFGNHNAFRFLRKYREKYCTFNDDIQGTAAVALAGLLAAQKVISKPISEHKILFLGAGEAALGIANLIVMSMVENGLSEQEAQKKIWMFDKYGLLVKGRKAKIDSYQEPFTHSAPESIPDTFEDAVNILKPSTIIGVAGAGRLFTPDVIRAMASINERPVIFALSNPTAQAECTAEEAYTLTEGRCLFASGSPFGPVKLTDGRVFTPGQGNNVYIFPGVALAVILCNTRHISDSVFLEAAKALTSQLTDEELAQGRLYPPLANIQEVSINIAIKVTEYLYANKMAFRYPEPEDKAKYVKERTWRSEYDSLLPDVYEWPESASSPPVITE

- fold induction at 20000 µM [1]: 1.75 ± 0.16
SMILES: C/C(=C\C(=O)O)C(=O)O [Mesaconate]

- fold induction at 10000 µM [1]: 1.83 ± 0.04
SMILES: CCOC(=O)/C=C/C(=O)O [Monoethyl fumarate]

- fold induction at 5000 µM [1]: 2.78 ± 0.08
SMILES: COC(=O)/C=C/C(=O)O [Monomethyl fumarate]

- IC50 [2]: ~2.5 mM
SMILES: CCOC(=O)/C=C(\O)C(=O)OCC [diethyl oxalacetate]
